Format in all cases: biochemical
For test [1], the target named is PKCα (Homo sapiens, UniProt P17252). Nature of the test: PKCα kinase Caliper assay. The following applies: read-out: PKC IC50. On the procedure: PKCα and cABLT315 Kinase Caliper Assays
Assays were performed in 384 well microtiter plates. Each assay plate contained 8-point serial dilutions for test compounds, as well as two 16-point serial dilutions of staurosporine as reference compound, plus 16 high- and 16 low controls. Liquid handling and incubation steps were done on a Thermo CatX workstation equipped with a Innovadyne Nanodrop Express. Between pipetting steps, tips were cleaned in wash cycles using wash buffer. Plates with terminated kinase reactions were transferred to the Caliper LC3000 workstations for reading. Phosphorylated and unphosphorylated peptides were separated using the Caliper microfluidic mobilitishift technology and Kinase activities were calculated from the amounts of formed phospho-peptide.
1. 0.05 μA Compound (start with 1.8 mM in 90% DMSO/10% H2O)
2. +4.5 μl 2× peptide/ATP solution
3. +4.5 μl 2× enzyme solution
4. Incubate for 60 min at 30° C.
4. +16 μl stop/run buffer
Independent of the kinase, all reactions were done performed in 50 mM HEPES, pH 7.5, 1 mM DTT, 0.02% Tween20, 0.02% BSA, and 0.6% DMSO.

The target in test [2] is PIM2 (Homo sapiens, UniProt Q9P1W9). As to the kind of experiment: Pim 2 AlphaScreen assay (high ATP). As to conditions: read-out: Pim2 IC50. An outline of the steps:
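IC50 values rest on detection of phosphorylated Bad peptide: after a ~2 h kinase reaction, an EDTA stop buffer containing anti-phospho Ser/Thr antibody, Protein A and streptavidin AlphaScreen beads was added and read after overnight dark incubation. ATP was high (11-125× Km), with 2.5% DMSO in pH 7.5 Hepes buffer containing MgCl2, BSA, Tween-20 and DTT.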
(In general: Bead proximity is the source of the signal in Alpha formats.)

In test [3] the target is PDGFRaV561D kinase (Homo sapiens, UniProt P16234, V561D). As to the kind of experiment: PDGFRaV561D kinase inhibition assay (LanthaScreen TR-FRET). As to conditions: read-out: PDGFRa IC50. On the procedure: PDGFRaV561D Kinase Inhibition Assay
PDGFRaV561D kinase, sequence (P16234 24-1089 V561D): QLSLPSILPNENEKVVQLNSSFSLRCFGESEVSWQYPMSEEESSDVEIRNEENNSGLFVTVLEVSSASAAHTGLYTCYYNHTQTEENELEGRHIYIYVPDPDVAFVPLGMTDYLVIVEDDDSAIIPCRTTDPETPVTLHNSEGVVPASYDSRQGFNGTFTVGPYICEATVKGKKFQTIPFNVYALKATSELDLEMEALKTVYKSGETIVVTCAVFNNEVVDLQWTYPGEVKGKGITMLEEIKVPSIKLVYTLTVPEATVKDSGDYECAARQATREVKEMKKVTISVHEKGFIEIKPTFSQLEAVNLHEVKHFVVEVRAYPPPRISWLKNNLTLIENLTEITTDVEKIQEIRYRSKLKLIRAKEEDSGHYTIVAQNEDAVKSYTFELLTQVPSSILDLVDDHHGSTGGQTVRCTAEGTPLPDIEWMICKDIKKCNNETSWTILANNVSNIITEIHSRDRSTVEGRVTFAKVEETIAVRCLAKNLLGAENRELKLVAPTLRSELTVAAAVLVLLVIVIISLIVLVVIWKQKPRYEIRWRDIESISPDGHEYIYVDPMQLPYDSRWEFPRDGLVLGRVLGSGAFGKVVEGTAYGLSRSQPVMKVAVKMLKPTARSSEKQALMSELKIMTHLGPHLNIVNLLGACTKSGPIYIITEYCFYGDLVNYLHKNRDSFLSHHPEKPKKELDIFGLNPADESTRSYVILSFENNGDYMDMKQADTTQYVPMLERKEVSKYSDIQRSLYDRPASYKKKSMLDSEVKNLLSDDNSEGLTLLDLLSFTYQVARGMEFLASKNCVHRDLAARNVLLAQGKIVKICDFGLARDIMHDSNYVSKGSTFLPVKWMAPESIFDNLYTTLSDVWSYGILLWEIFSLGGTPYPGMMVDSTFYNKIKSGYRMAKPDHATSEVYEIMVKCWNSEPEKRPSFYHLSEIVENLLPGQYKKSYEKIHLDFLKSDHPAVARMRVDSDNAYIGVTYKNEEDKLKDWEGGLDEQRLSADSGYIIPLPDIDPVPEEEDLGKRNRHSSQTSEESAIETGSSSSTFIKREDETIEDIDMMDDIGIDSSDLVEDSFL
LanthaScreen™ is the detection of Time-Resolved Fluorescence Resonance Energy Transfer (TR-FRET) using lanthanide chelates to measure interactions between various binding partners. The application of TR-FRET to assay kinase activity was first described by Mathis (1995). A TR-FRET assay was used to measure PDGFRaV561D kinase inhibitory activity. The assay panel was run on a Biomek FX liquid handling workstations. To the assay plates containing […] compound or control solutions, 4.5 μL of buffer A (50 mM TRIS-HCl pH 7.4, 2 mM DTT, 0.02% Tween 20, 0.02 mM Na3VO4, H2O nanpure) including a generic concentration of ATP (2 μM f.c.) was added per well, followed by […] of buffer B (4 uM ATP in Buffer A) including a generic concentration of polyEAY (50 nM f.c.), PDGFRaV561D kinase, and divalent cations. Final concentration of kinase and cations were: [PDGFRaV561D kinase]=4.4 nM, [Mn]=10 mM. After 1 hour of incubation the kinase reactions were stopped by the addition of 4.5 μL of stop solution D (50 mM EDTA, 20 mM TRIS-HCl pH 7.4, 0.04% NP-40) immediately followed by 4.5 μL of buffer A (50 mM TRIS-HCl pH 7.4, 2 mM DTT, 0.02% Tween 20, 0.02 mM Na3VO4, H2O nanpure) including the Tb-labeled P-20 antibody to give a total detection volume of […]. After an incubation time of 45 min in the dark, the plates were transferred into the Pherastar fluorescence reader for counting. The effect of compound on the enzymatic activity was obtained from the linear progress curves and determined from one reading (end point measurement).

Where two headings read alike, the source gives them in different places.

PIM2, sequence (Q9P1W9 whole entry): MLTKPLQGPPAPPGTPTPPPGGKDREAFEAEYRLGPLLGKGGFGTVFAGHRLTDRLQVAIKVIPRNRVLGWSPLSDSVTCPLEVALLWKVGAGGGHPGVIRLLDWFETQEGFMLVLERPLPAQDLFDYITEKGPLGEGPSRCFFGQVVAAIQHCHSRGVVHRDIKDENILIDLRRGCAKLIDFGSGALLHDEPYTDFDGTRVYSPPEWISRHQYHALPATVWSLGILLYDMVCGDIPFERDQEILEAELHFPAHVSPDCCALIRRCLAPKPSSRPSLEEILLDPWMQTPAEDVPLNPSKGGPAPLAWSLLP

With `C=C1[C@@H](O)C[C@@H](c2ccncc2NC(=O)c2nc(-c3ccccc3)cnc2N)OC12CC2` [Example 5, 3-amino-N-(4-((5S,7S)-7-hydroxy-8-methylene-4-oxaspiro[2.5]octan-5-yl)pyridin-3-yl)-6-phenylpyrazine-2-carboxamide], the IC50 (commonly the concentration needed to halve the response being measured) in test [1] is 60 nM.

Consider `C[C@H]1O[C@@H](c2ccncc2NC(=O)c2nc(-c3ccccc3)ncc2N)C[C@@H](O)[C@]1(C)O` [Example 32, 5-amino-N-(4-((2R,4R,5S,6R)-4,5-dihydroxy-5,6-dimethyltetrahydro-2H-pyran-2-yl)pyridin-3-yl)-2-phenylpyrimidine-4-carboxamide], for which, in test [1], the half-maximal inhibitory concentration (IC50) was above 10000 nM.

With `Nc1ncc(-c2ccccc2)nc1C(=O)Nc1cnccc1[C@H]1C[C@@H](O)[C@H](O)[C@@H](CCl)O1` [Example 36, 3-amino-N-(4-((2R,4R,5S,6S)-6-(chloromethyl)-4,5-dihydroxytetrahydro-2H-pyran-2-yl)pyridin-3-yl)-6-phenylpyrazine-2-carboxamide], in test [1], the half-inhibitory concentration (IC50) is 100 nM.

With `CC[C@H]1O[C@@H](c2ccncc2NC(=O)c2nc(-c3ccccc3)ncc2N)C[C@@H](O)[C@@H]1O` [Example 39, 5-amino-N-(4-((2R,4R,5S,6R)-6-ethyl-4,5-dihydroxytetrahydro-2H-pyran-2-yl)pyridin-3-yl)-2-phenylpyrimidine-4-carboxamide], the IC50 in test [1] is above 10000 nM.

In the case of `C[C@H]1O[C@@H](c2ccncc2NC(=O)c2nc(-c3ccccc3)cnc2N)[C@H](F)[C@@H](O)[C@]1(C)O` [Example 58, 3-amino-N-(4-((2S,3R,4S,5S,6R)-3-fluoro-4,5-dihydroxy-5,6-dimethyltetrahydro-2H-pyran-2-yl)pyridin-3-yl)-6-phenylpyrazine-2-carboxamide], the IC50 in test [1] was found to be 820 nM.

As for `C[C@@H]1O[C@H](c2ccncc2NC(=O)c2nc(-c3ccccc3)cnc2N)[C@@H](F)[C@H](O)[C@@]1(C)O` [Example 63, 3-amino-N-(4-((2R,3S,4R,5R,6S)-3-fluoro-4,5-dihydroxy-5,6-dimethyltetrahydro-2H-pyran-2-yl)pyridin-3-yl)-6-phenylpyrazine-2-carboxamide], the IC50 in test [1] was 41 nM.

As to `C[C@H]1O[C@@H](c2ccncc2NC(=O)c2nc(-c3ccccc3)cnc2N)C[C@@H](O)[C@]1(C)O` [Example 84, 3-amino-N-(4-((2R,4R,5S,6R)-4,5-dihydroxy-5,6-dimethyltetrahydro-2H-pyran-2-yl)pyridin-3-yl)-6-phenylpyrazine-2-carboxamide], in test [1], the IC50 turned out to be 490 nM.

As for `C[C@@H]1O[C@H](c2ccncc2NC(=O)c2nc(-c3ccccc3)cnc2N)C[C@H](O)[C@@]1(C)O` [Example 86, 3-amino-N-(4-((2S,4S,5R,6S)-4,5-dihydroxy-5,6-dimethyltetrahydro-2H-pyran-2-yl)pyridin-3-yl)-6-phenylpyrazine-2-carboxamide], the IC50 in test [1] came to 790 nM.

As to `Nc1ncc(-c2ccccc2)nc1C(=O)Nc1cnccc1[C@H]1C[C@@H](N)[C@@]2(O)CCCC[C@H]2O1` [Example 197, 3-amino-N-(4-((2R,4R,4aS,8aR)-4-amino-4a-hydroxyoctahydro-2H-chromen-2-yl)pyridin-3-yl)-6-phenylpyrazine-2-carboxamide], the IC50 came to 41 nM in test [1] (PKCα Caliper assay), 89.2 nM in test [2] and 23 nM in test [3].

In the case of `Nc1ncc(-c2ccccc2)nc1C(=O)Nc1cnccc1[C@H]1C[C@@H](N)[C@H]2CCC[C@H]2O1` [Example 199, 3-amino-N-(4-((2R,4R,4aR,7aR)-4-aminooctahydrocyclopenta[b]pyran-2-yl)pyridin-3-yl)-6-phenylpyrazine-2-carboxamide], the values for the IC50 in test [1] (PKCα Caliper assay), in test [2] and in test [3] were 31 nM, 102 nM and 14 nM, respectively.

As to `Nc1ncc(-c2ccccc2)nc1C(=O)Nc1cnccc1[C@@H]1C[C@H](N)[C@@H]2CCC[C@@H]2O1` [Example 233, 3-amino-N-(4-((2S,4S,4aS,7aS)-4-aminooctahydrocyclopenta[b]pyran-2-yl)pyridin-3-yl)-6-phenylpyrazine-2-carboxamide], the results for the IC50 in test [1] (PKCα Caliper assay), in test [2] and in test [3] were 550 nM, 5140 nM and 940 nM, respectively.

As to `Nc1ncc(-c2ccccc2)nc1C(=O)Nc1cnccc1[C@@H]1C[C@H](N)[C@]2(O)CCCC[C@@H]2O1` [Example 243, 3-amino-N-(4-((2S,4S,4aR,8aS)-4-amino-4a-hydroxyoctahydro-2H-chromen-2-yl)pyridin-3-yl)-6-phenylpyrazine-2-carboxamide], the IC50 in test [1] (PKCα Caliper assay) was 7200 nM; in test [3] it was 8300 nM.

Turning to `C[C@@]1(O)[C@@H](N)C[C@@H](c2ccncc2NC(=O)c2nc(-c3ccccc3)cnc2N)OC12CC2` [Example 350, 3-amino-N-(4-((5S,7S,8R)-7-amino-8-hydroxy-8-methyl-4-oxaspiro[2.5]octan-5-yl)pyridin-3-yl)-6-phenylpyrazine-2-carboxamide], the IC50 came out at 21 nM in test [1] (PKCα Caliper assay), 786 nM in test [2] and 420 nM in test [3].

As to `C[C@]1(O)[C@@H](N)C[C@H](c2ccncc2NC(=O)c2nc(-c3ccccc3)cnc2N)OC12CC2` [Example 351, 3-amino-N-(4-((5R,7S,8S)-7-amino-8-hydroxy-8-methyl-4-oxaspiro[2.5]octan-5-yl)pyridin-3-yl)-6-phenylpyrazine-2-carboxamide], the IC50 in test [2] came to 538 nM; in test [3], 18 nM.

As for `C[C@@]1(O)[C@H](N)C[C@@H](c2ccncc2NC(=O)c2nc(-c3ccccc3)cnc2N)OC12CC2` [Example 352, 3-amino-N-(4-((5S,7R,8R)-7-amino-8-hydroxy-8-methyl-4-oxaspiro[2.5]octan-5-yl)pyridin-3-yl)-6-phenylpyrazine-2-carboxamide], the results for the IC50 in test [1] (PKCα Caliper assay), in test [2] and in test [3] were 55 nM, 1980 nM and 41 nM, respectively.

On to `C[C@]1(O)[C@H](N)C[C@H](c2ccncc2NC(=O)c2nc(-c3ccccc3)cnc2N)OC12CC2` [Example 353, 3-amino-N-(4-((5R,7R,8S)-7-amino-8-hydroxy-8-methyl-4-oxaspiro[2.5]octan-5-yl)pyridin-3-yl)-6-phenylpyrazine-2-carboxamide], for which the figures for the IC50 in test [1] (PKCα Caliper assay), in test [2] and in test [3] were 84 nM, 2430 nM and 760 nM, respectively.

The values are drawn from US20130109682A1, “CYCLIC ETHER COMPOUNDS USEFUL AS KINASE INHIBITORS” (NOVARTIS AG, priority 2010, published 2013).
